{"source": "BindingDB's records for PubMed 11303056", "about": "(Kissei Pharmaceutical, 2001)", "key": {"[1]": {"biological_target": "Beta-2 adrenergic receptor (Homo sapiens, UniProt P07550)", "sequence (P07550 whole entry)": "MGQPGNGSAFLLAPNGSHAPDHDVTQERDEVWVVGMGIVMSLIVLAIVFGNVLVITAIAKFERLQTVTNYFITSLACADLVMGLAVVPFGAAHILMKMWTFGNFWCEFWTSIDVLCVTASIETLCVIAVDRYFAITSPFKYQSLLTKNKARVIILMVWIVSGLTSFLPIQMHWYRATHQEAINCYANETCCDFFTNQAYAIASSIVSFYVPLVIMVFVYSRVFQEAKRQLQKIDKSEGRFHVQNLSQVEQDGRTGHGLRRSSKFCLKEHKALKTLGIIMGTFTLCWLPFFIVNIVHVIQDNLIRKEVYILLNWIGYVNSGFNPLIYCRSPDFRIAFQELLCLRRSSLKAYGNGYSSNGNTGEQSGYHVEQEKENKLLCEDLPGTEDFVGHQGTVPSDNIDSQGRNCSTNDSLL"}, "[2]": {"biological_target": "Beta-3 adrenergic receptor (Homo sapiens, UniProt P13945)", "sequence (P13945 whole entry)": "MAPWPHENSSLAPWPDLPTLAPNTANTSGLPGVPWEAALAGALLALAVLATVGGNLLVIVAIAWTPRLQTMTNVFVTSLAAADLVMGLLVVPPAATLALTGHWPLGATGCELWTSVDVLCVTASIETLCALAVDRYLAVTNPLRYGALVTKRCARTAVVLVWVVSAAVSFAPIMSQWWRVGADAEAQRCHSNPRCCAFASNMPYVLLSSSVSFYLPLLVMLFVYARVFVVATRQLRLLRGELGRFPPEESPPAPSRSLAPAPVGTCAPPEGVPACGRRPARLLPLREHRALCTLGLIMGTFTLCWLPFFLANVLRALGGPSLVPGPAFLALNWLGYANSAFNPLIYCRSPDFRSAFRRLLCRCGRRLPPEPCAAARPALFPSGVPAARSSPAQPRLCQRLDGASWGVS"}}, "note": "pKi: −log10 of the molar value.", "data": [{"smiles": "CN(C)C(=O)COc1ccc2c(c1)C[C@@H](NC[C@H](O)c1ccc(O)c(CCO)c1)CC2", "note": "[KUR-1246]", "values": [{"measurement": "pKi", "setting": "[1]", "result": 7.59}, {"measurement": "pKi", "setting": "[2]", "result": "< 5.00"}]}]}
